From ChEMBL document CHEMBL4325898, “Recent advances in the development of neuroprotective agents and therapeutic targets in the treatment of cerebral ischemia” (Eur J Med Chem, 2019)

Tested on: Felis catus
Assay: Reduction in infarct volume in cat at 0.5 mg/kg administered as bolus dose at 15 mins before middle cerebral artery occlusion followed by infusion of 0.14 mg/kg/hr measured after 6 hrs
Format: functional
Parameters: scale not given: the % may be the effect or the level left

With `C[C@]12N[C@H](Cc3ccccc31)c1ccccc12.O=C(O)/C=C/C(=O)O` the Activity was 75%.
